Data reported in patent publication US11534448B2, “Use of canagliflozin in preparation of antitumor drug” (ZHEJIANG UNIVERSITY, priority 2019, dated 2022).

Columns and labels:
Assay type in all cases: cell-based, human
PD-L1 [1] = test: Western blotting of PD-L1 total protein expression in tumor cells; details: canagliflozin 20 μM + IFNγ 10 ng/mL, 24 h, FIG. 1
Protocol: Multiple human tumor cells, non-small cell lung cancer H1299 cells and osteosarcoma MG63 cells, were selected and respectively inoculated in 6-well plates (1.0×10^6 cells/well), and incubated overnight in incubator at 37° C. with 5% CO2. On the next day, each plate was added with canagliflozin (20 μM) and γ-interferon (IFNγ, 10 ng/mL), and after 24 hours, the cells were collected and lysed to extract the proteins. The expression of PD-L1 in the cells were detected by Western blotting.

PD-L1 [2] = test: Flow cytometry of PD-L1 expression on cell surfaces; details: canagliflozin 20 μM + IFNγ 10 ng/mL, 24 h, FIG. 2
Protocol: Two human tumor cell lines, non-small cell lung cancer H1299 cells and osteosarcoma MG63 cells, were selected and respectively inoculated in 6-well plates (1.0×10^6 cells/well), and incubated overnight in incubator at 37° C. with 5% CO2. On the next day, each plate was added with canagliflozin (20 μM) and γ-interferon (IFNγ, 10 ng/mL), and after 24 hours, the PD-L1 expressions on the cell surfaces were detected with flow cytometry.

PD-L1 [3] = test: PD-L1 protein stability (cycloheximide chase, Western blotting, gray-scale analysis); details: H1299 cells; IFNγ 10 ng/mL 24 h, then CHX (10 g/mL) + canagliflozin 20 μM vs CHX alone; 0-12 h; FIG. 3
Protocol: The non-small cell lung cancer H1299 cells were inoculated in 6-well plates (1.0×10^6 cells/well), and incubated overnight in incubator at 37° C. with 5% CO2. On the next day, the plates were first added with γ-interferon (IFNγ, 10 ng/mL), and after 24 hours, a protein synthesis inhibitor cycloheximide (CHX, […]) or a co-administration group of CHX ([…])+canagliflozin (20 μM) was administrated simultaneously for these plates. After 0 h, 2 h, 4 h, 6 h, 8 h, and 12 h, respectively, the cells were collected to detect the change of the protein level of PD-L1 in the cells by Western blotting, and a gray-scale analysis was performed to plot a curve for investigating the protein stability.

[4] = test system: non-small cell lung cancer H1299 cells; test: Killing effect of activated T cells on co-incubated tumor cells (crystal violet staining); details: H1299 cells treated with canagliflozin 20 μM + IFNγ 10 ng/mL for 24 h, PD-L1 antibody drug as positive control, FIG. 4
Protocol: (§1) PBMC cells were isolated from human blood samples using Ficoll separation solution, and then stimulated with CD3 and CD28 for 3 days to activate T cells in PBMC, and in the meantime, interleukin-2 (IL-2, 50 U/uL) was administrated to maintain the growth of T cells. The activated T cells were co-incubated with the tumor cells that had been treated with canagliflozin (20 μM) and γ-interferon (IFNγ, 10 ng/mL) for 24 hours. A PD-L1 antibody drug was used as a positive control. The killing effect of T cells on tumor cells was investigated, and a crystal violet staining method was employed to investigate the killing effect of T cells on tumor cells.

osteosarcoma MG63 cells = test: as above; details: MG63 cells treated with canagliflozin 20 μM + IFNγ 10 ng/mL for 24 h, PD-L1 antibody drug as positive control, FIG. 4
Protocol: as §1

[5] = non-small cell lung cancer H1299 cells

Structure (SMILES): Cc1ccc([C@@H]2O[C@H](CO)[C@@H](O)[C@H](O)[C@H]2O)cc1Cc1ccc(-c2ccc(F)cc2)s1 [canagliflozin, (1S)-1,5-anhydro-1-C-[3-[[5-(4-fluorophenyl)-2-thienyl]methyl]-4-methylphenyl]-D-glucitol]
- PD-L1 total protein expression (PD-L1 [1]; [5]): significantly inhibited the PD-L1 total protein expression
- PD-L1 total protein expression (PD-L1 [1]; osteosarcoma MG63 cells): significantly inhibited the PD-L1 total protein expression
- PD-L1 protein expression on the cell surface (PD-L1 [2]; [5]): significantly inhibited the PD-L1 protein expression on the tumor cell surfaces
- PD-L1 protein expression on the cell surface (PD-L1 [2]; osteosarcoma MG63 cells): significantly inhibited the PD-L1 protein expression on the tumor cell surfaces
- degradation of the PD-L1 protein (PD-L1 [3]): significantly promoted the degradation of the PD-L1 protein
- killing effect of T cells on tumor cells [4]: significantly enhanced the killing effect of T cells on tumor cells
- killing effect of T cells on tumor cells (osteosarcoma MG63 cells): significantly enhanced the killing effect of T cells on tumor cells
